From patent publication US20110275675A1, “Antimicrobial Dental Materials” (IVOCLAR VIVADENT AG, priority 2010, published 2011)
Entries after “also recorded” stand apart in the source; their conditions may differ.

Assays:
[1] = Hardening on exposure to dental polymerization light; type: physicochemical; conditions: 20 s exposure to light (Bluephase); 0.2 or 0.5 wt.-% Ia in Fermit
Experimental: (§1) 0.2 wt.-% or 0.5 wt.-% of the antimicrobial active ingredient of formula (Ia) was incorporated into the commercially available composite-based temporary filling material Fermit (Ivoclar Vivadent AG). […] The Shore D hardness was then determined (see Table 4 for results).

Streptococcus mutans = test: Agar plate zone of inhibition test; type: cell-based, S. mutans DSM20723; conditions: 24 h at 37° C./5% CO2
Text: To determine the antimicrobial action of a temporary dental cement with the active ingredient of formula (Ia), 3.0 wt.-% of the active ingredient of formula (Ia) was incorporated into the commercially available cement Systemp.link (Ivoclar Vivadent AG). Round testpieces with a diameter of 10 mm and a thickness of 2 mm were then shaped into small plates with the corresponding material and then cured. Testpieces made of Systemp.link without active ingredient and also with 1.0 and 3.0 wt.-% triclosan served as reference. After this, the antimicrobial action on the bacterial strain Streptococcus mutans was studied. The agar plate zone of inhibition test was used for this.
Bacterial strain: S. mutans DSM20723 Cultivation medium: BHI broth
100 μl undiluted S. mutans culture solution was plated out onto agar plates. The testpieces were then placed on the agar plates. After 24 h storage at 37° C./5% CO2, the plates were assessed.

[2] = Influence on radical polymerization: chemical hardening of Systemp.link; type: physicochemical; conditions: 3.0 wt.-%
Experimental: 3.0 wt.-% triclosan or 3.0 wt.-% of the antimicrobial active ingredient of formula (Ia) was incorporated into the base paste of the commercially available composite-based temporary fixing cement Systemp.link (Ivoclar Vivadent AG), which hardens radically. The processing time (PT), setting time (ST) and Shore D hardness in the case of chemical hardening were then determined.

[3] = Hardening properties of temporary cement based on polycarboxylate/zinc oxide (Systemp.cem); type: physicochemical; conditions: 0.3 or 3.0 wt.-%
Experimental: (§2) 0.3 wt.-% or 3.0 wt.-% of the antimicrobial active ingredient of formula (Ia) was incorporated into the initiator paste of the commercially available temporary fixing cement based on polycarboxylate/zinc oxide Systemp.cem (Ivoclar Vivadent AG). The processing time (PT), setting time (ST) and Shore D hardness were then determined.

[4] = Shore D hardness of temporary filling material (Fermit); type: physicochemical; conditions: 0.2 or 0.5 wt.-%
Experimental: as §1

[5] = Hardening properties of composite-based temporary cement (Systemp.link); type: physicochemical; conditions: 0.3 or 3.0 wt.-%
Experimental: as §2, with “base” for “initiator”, “available composite-based” for “available”, “Systemp.link” for “based on polycarboxylate/zinc oxide Systemp.cem”

[6] = Through-curing depth of light-curing composite filling material; type: physicochemical; conditions: 3.0 or 5.0 wt.-%
Experimental: A composite filling material with the following composition was prepared:
3.0 wt.-% or 5.0 wt.-% of the antimicrobial active ingredient of formula (Ia) was incorporated into the composite filling material. After 20 s exposure to light with a dental polymerization light (Bluephase®, Ivoclar Vivadent AG), the through-curing depth was determined. For comparison, the antimicrobial active ingredients triclosan and chlorhexidine diacetate were also incorporated into the composite material in a quantity of 3.0 wt.-% or 5.0 wt.-% and the through-curing depth determined (see Table 5 for results).

[7] = 3.0 wt.-% active ingredient in cured Systemp.link small plates

SMILES | Hardening after exposure to light [1] | Formation of zones of inhibition (Streptococcus mutans; [7]) | Influence on the chemical hardening of Systemp.link [2] | Influence on the hardening of Systemp.cem [3] | Influence on the hardening of Fermit [4] | Influence on the hardening of Systemp.link [5] | Influence on the through-curing depth of the composite material [6] | Formation of zones of inhibition (Streptococcus mutans; 1.0 wt.-% active ingredient in cured Systemp.link small plates)
CCCCCCCCNc1cc[n+](CCCCCCCCCC[n+]2ccc(NCCCCCCCC)cc2)cc1 [Ia] | hardened completely | clear zones of inhibition | does not have a significant negative influence | does not have a significant negative influence | does not have a significant negative influence | does not have a significant negative influence | does not have a significant negative influence | 
CC(=O)O.CC(=O)O.NC(=N\CCCCCC/N=C(N)/N=C(\N)Nc1ccc(Cl)cc1)/N=C(\N)Nc1ccc(Cl)cc1 [chlorhexidine diacetate] |  |  |  |  |  |  | dramatically reduced | 
Oc1cc(Cl)ccc1Oc1ccc(Cl)cc1Cl [triclosan, 2,4,4′-trichloro-2′-hydroxydiphenylether] |  | does not bring about a formation of zones of inhibition; also recorded: zones of inhibition do not form | completely inhibited |  |  |  | dramatically reduced | does not bring about a formation of zones of inhibition; also recorded: zones of inhibition do not form
